Target: T1, fluoroacetate dehalogenase (FAcD) (Rhodopseudomonas palustris, UniProt Q6NAM1)
T1 construct: gene RPA1163; 300-residue homodimer expressed in E. coli BL21; all Trp replaced biosynthetically by 5-fluoro-(phenyl-13C6)-L-tryptophan; 9 Trp per protomer
Test: […]-13C TROSY HSQC and 1D […] NMR
Assay type: binding
Conditions: 50 °C; enzyme saturated with bromoacetate; 5-fluorotryptophan-labelled enzyme; active site; unreacted substrate analogue

T1 sequence (Q6NAM1 whole entry): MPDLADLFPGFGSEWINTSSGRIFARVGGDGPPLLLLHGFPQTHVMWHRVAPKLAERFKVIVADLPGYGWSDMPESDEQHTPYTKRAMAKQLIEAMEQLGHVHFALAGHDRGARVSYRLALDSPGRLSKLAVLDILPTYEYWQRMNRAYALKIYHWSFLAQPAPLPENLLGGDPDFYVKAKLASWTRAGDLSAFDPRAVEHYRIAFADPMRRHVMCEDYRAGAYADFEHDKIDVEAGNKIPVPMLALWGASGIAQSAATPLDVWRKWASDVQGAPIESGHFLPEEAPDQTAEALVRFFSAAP

O=C(O)CBr [bromoacetate]
19F-13C TROSY HSQC and 1D 19F NMR: The addition of BrAc is also observed to result in a pronounced shift for W185
